Reference: patent publication US9580449B2, “Compositions and methods for the production of pyrimidine and pyridine compounds with BTK inhibitory activity” (Merck Patent GmbH, priority 2011, dated 2017)
Where two headings read alike, the source gives them in different places.

Legend:
PBMC = experiment: Time Dependent PBMC IC50 assay; type: cell-based
Method: Compounds described by embodiments of the present invention were assayed using a time dependent PMBC assay.

full-length human BTK = full-length human BTK (Homo sapiens (Human), UniProt Q06187); experiment: BTK IC50 enzyme assay (microfluidic off-chip mobility shift kinase assay); type: biochemical; settings: incubated for 90 min. at 27 C; read-out: Time Dependent BTK Enzyme Assay IC50
full-length human BTK, sequence (Q06187 whole entry): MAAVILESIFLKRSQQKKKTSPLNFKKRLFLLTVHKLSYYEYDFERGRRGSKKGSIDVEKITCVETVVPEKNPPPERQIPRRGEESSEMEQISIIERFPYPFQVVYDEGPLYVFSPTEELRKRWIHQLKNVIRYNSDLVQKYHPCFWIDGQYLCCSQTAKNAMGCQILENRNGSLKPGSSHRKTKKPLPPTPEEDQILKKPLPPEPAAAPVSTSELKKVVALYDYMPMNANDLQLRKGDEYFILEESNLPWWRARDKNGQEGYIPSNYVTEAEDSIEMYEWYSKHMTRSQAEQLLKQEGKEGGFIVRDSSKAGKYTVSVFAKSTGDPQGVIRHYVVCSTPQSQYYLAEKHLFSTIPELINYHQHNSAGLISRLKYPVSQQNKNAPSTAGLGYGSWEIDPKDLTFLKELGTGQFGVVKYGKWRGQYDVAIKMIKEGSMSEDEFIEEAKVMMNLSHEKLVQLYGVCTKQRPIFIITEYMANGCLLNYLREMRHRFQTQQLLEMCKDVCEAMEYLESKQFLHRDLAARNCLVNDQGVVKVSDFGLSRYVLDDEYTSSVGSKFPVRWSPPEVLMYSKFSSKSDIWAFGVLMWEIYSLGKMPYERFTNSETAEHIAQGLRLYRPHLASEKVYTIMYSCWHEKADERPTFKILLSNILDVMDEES
Summary of the method: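 Read-out separates phosphorylated peptide product from substrate by charge/mass in a mobility shift format with full-length human BTK.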

BTK = BTK (Homo sapiens (Human), UniProt Q06187); experiment: Time Dependent Human Whole Blood IC50 assay; type: cell-based
BTK, sequence (Q06187 whole entry): as above
Method: Compounds described by embodiments of the present invention were assayed using a human whole blood assay. The data from the same is recorded in Table 2 within the column labeled: “Time Dependent Human Whole Blood BTK Enzyme Assay IC50”.

[1] = human whole blood, read-out: Time Dependent Human Whole Blood BTK Enzyme Assay IC50

IC50 (full-length human BTK) [nM]	IC50 (BTK; [1]) [nM]	Compound	IC50 (PBMC) [nM]	IC50 (BTK) [nM]
< 100		C#CC(=O)N[C@@H]1CCC[C@H](Nc2ncnc(N)c2-c2ccc(Oc3ccccc3)cc2)C1 (relative stereo) [A64, N-(cis-3-((6-amino-5-(4-phenoxyphenyl)pyrimidin-4-yl)amino)cyclohexyl)propiolamide]	< 1000	
< 100		C=CC(=O)N1C[C@H](Nc2ncnc(N)c2-c2ccc(Oc3ccccc3)cc2)[C@@H](O)C1 (relative stereo) [A75, 1-(trans-3-((6-amino-5-(4-phenoxyphenyl)pyrimidin-4-yl)amino)-4-hydroxypyrrolidin-1-yl)prop-2-en-1-one]	< 1000	
< 100	< 1000	C=CC(=O)Nc1cccc(Nc2ncnc(N)c2-c2ccc(Oc3ccccc3)cc2)c1 [A3, N-(3-((6-amino-5-(4-phenoxyphenyl)pyrimidin-4-yl)amino)phenyl)acrylamide]	< 1000	
< 100		C=CC(=O)N1CCC(COc2ncncc2-c2ccc(Oc3ccccc3)cc2)CC1 [A6, 1-(4-(((5-(4-phenoxyphenyl)pyrimidin-4-yl)oxy)methyl)piperidin-1-yl)prop-2-en-1-one]	< 1000	
< 100		C=CC(=O)N1CCCCC(Nc2ncnc(N)c2-c2ccc(Oc3ccccc3)cc2)C1 (centres unmarked) [A52, 1-(3-((6-amino-5-(4-phenoxyphenyl)pyrimidin-4-yl)amino)azepan-1-yl)prop-2-en-1-one]	< 1000	
< 100		C=CC(=O)Nc1cccc(Oc2ncnc(N)c2-c2cnn(Cc3cccc(F)c3)c2)c1 [A67, N-(3-((6-amino-5-(1-(3-fluorobenzyl)-1H-pyrazol-4-yl)pyrimidin-4-yl)oxy)phenyl)acrylamide]	< 1000	
< 100		C=CC(=O)Nc1cccc(Nc2ncnc(N)c2-c2cnn(Cc3ccccc3)c2)c1 [A70, N-(3-((6-amino-5-(1-benzyl-1H-pyrazol-4-yl)pyrimidin-4-yl)amino)phenyl)acrylamide]	< 1000	
< 100		CN(C)C/C=C/C(=O)N1CC2(CC(Oc3ncnc(N)c3-c3ccc(Oc4ccccc4)cc3)C2)C1 [A105, (E)-1-(6-((6-amino-5-(4-phenoxyphenyl)pyrimidin-4-yl)oxy)-2-azaspiro[3.3]heptan-2-yl)-4-(dimethylamino)but-2-en-1-one]	< 1000	
< 100		C=CC(=O)N1CC2(CC(Oc3ncnc(N)c3-c3cnn(Cc4ccccc4)c3)C2)C1 [A106, 1-(6-((6-amino-5-(1-benzyl-1H-pyrazol-4-yl)pyrimidin-4-yl)oxy)-2-azaspiro[3.3]heptan-2-yl)prop-2-en-1-one]	> 1000	
< 100		C=CC(=O)N1CCC2(CC(Nc3ncnc(N)c3-c3ccc(Oc4ccccc4)cc3)C2)C1 (centres unmarked) [A113, 1-(2-((6-amino-5-(4-phenoxyphenyl)pyrimidin-4-yl)amino)-6-azaspiro[3.4]octan-6-yl)prop-2-en-1-one]	< 1000	
< 100		C=CC(=O)N1CC2(CC(Oc3ncnc(N)c3-c3ccc(Oc4ccncc4)cc3)C2)C1 [A114, 1-(6-((6-amino-5-(4-(pyridin-4-yloxy)phenyl)pyrimidin-4-yl)oxy)-2-azaspiro[3.3]heptan-2-yl)prop-2-en-1-one]	> 1000	
< 100		C#CC(=O)N1CCC2(CC(Nc3ncnc(N)c3-c3ccc(Oc4ccccc4)cc3)C2)C1 (centres unmarked) [A115, 1-(2-((6-amino-5-(4-phenoxyphenyl)pyrimidin-4-yl)amino)-6-azaspiro[3.4]octan-6-yl)prop-2-yn-1-one]	> 1000	
< 100		C=CC(=O)N[C@H]1C[C@H](Nc2ncnc(N)c2-c2ccc(Oc3ccccc3)cc2)C1 [A117, N-(1,3-trans-3-((6-amino-5-(4-phenoxyphenyl)pyrimidin-4-yl)amino)cyclobutyl)acrylamide]	< 1000	
< 100		C=CC(=O)N[C@H]1C[C@@H](Nc2ncnc(N)c2-c2ccc(Oc3ccccc3)cc2)C1 [A118]	< 1000	
< 100	< 1000	C=CC(=O)N1CC2(CC(Oc3ncnc(N)c3-c3ccc(Oc4ccccc4)cc3)C2)C1 [A120, 1-(6-((6-amino-5-(4-phenoxyphenyl)pyrimidin-4-yl)oxy)-2-azaspiro[3.3]heptan-2-yl) prop-2-en-1-one]	< 1000	
< 100		C=CC(=O)N1CCC(CNc2ncnc(N)c2-c2ccc(Oc3ccccc3)cc2)(OC)CC1 [A121, 1-(4-(((6-amino-5-(4-phenoxyphenyl)pyrimidin-4-yl)amino)methyl)-4-methoxypiperidin-1-yl)prop-2-en-1-one]	< 1000	
		C=CC(=O)N1CC2(CC(Nc3ncnc(N)c3-c3ccc(Oc4ccccc4)cc3)C2)C1 [A124, 1-(6-((6-amino-5-(4-phenoxyphenyl)pyrimidin-4-yl)amino)-2-azaspiro[3.3]heptan-2-yl)prop-2-en-1-one]	< 1000	

IC50 (full-length human BTK) [nM]	IC50 (BTK; [1]) [nM]	Compound	IC50 (PBMC) [nM]	IC50 (BTK) [nM]
< 100		CN(C)C/C=C/C(=O)N1CC[C@@H](CNc2ncnc(N)c2-c2ccc(Oc3ccccc3)cc2)[C@H](O)C1 [A126, (E)-1-((3S,4S)-4-(((6-amino-5-(4-phenoxyphenyl)pyrimidin-4-yl)amino)methyl)-3-hydroxypiperidin-1-yl)-4-(dimethylamino)but-2-en-1-one]	< 1000	
< 100		CN(C)C/C=C/C(=O)N1CC2(CC(Nc3ncnc(N)c3-c3ccc(Oc4ccccc4)cc3)C2)C1 [A127, (E)-1-(6-((6-amino-5-(4-phenoxyphenyl)pyrimidin-4-yl)amino)-2-azaspiro[3.3]heptan-2-yl)-4-(dimethylamino)but-2-en-1-one]	< 1000	
< 100		CN(C)C/C=C/C(=O)Nc1cccc(Oc2ccnc(N)c2-c2ccc(Oc3ccccc3)cc2)c1 [A151, (E)-N-(3-((2-amino-3-(4-phenoxyphenyl)pyridin-4-yl)oxy)phenyl)-4-(dimethylamino)but-2-enamide]	> 1000	
> 1000		C=CC(=O)N1CCC(CNc2ncnc(N)c2-c2ccc(Oc3ccccc3)nc2)CC1 [A168, 1-(4-(((6-amino-5-(6-phenoxypyridin-3-yl)pyrimidin-4-yl)amino)methyl)piperidin-1-yl)prop-2-en-1-one]	> 1000	
< 100		C=CC(=O)Nc1cccc(Oc2ncnc(N)c2-c2ccc(Oc3ccccc3)cc2)c1 [A242, N-(3-((6-amino-5-(4-phenoxyphenyl)pyrimidin-4-yl)oxy)phenyl)acrylamide]	< 1000	
< 100		C=CC(=O)Nc1cccc(-c2c(N)ncnc2Oc2ccc(Oc3ccccc3)cc2)c1 [A245, N-(3-(4-amino-6-(4-phenoxyphenoxy)pyrimidin-5-yl)phenyl)acrylamide]	< 1000	
		C=CC(=O)N1CCC[C@@H](Nc2ncnc(N)c2-c2ccc(Oc3ccccc3)cc2)C1 [A247, (R)-1-(3-((6-amino-5-(4-phenoxyphenyl)pyrimidin-4-yl)amino)piperidin-1-yl)prop-2-en-1-one]	< 1000	
		C=CC(=O)N1CCC(CNc2ncnc(N)c2-c2ccc(Oc3ccccc3)cc2)CC1 [A250, 1-(4-(((6-amino-5-(4-phenoxyphenyl)pyrimidin-4-yl)amino)methyl)piperidin-1-yl)prop-2-en-1-one]	< 1000	
< 100		CN(C)C/C=C/C(=O)Nc1cccc(Oc2ncnc(N)c2-c2ccc(Oc3ccccc3)cc2)c1 [A252, (E)-N-(3-((6-amino-5-(4-phenoxyphenyl)pyrimidin-4-yl)oxy)phenyl)-4-(dimethylamino)but-2-enamide]	< 1000	
		C=CC(=O)N1CCCC(Nc2ncnc(N)c2-c2ccc(Oc3ccccc3)cc2)C1 (centres unmarked) [A253, 1-(3-((6-amino-5-(4-phenoxyphenyl)pyrimidin-4-yl)amino)piperidin-1-yl)prop-2-en-1-one]	< 1000	
		C=CC(=O)Nc1cccc(Oc2ncncc2-c2ccc(Oc3ccccc3)cc2)c1 [A255, N-(3-((5-(4-phenoxyphenyl)pyrimidin-4-yl)oxy)phenyl)acrylamide]	< 1000	
< 100		C=CC(=O)Nc1cccc(Oc2ncnc(N)c2-c2ccc(C(=O)Nc3ccccc3)cc2)c1 [A258, 4-(4-(3-acrylamidophenoxy)-6-aminopyrimidin-5-yl)-N-phenylbenzamide]	> 1000	
		C=CC(=O)N1CCC(CNc2ncnc(N)c2-c2ccc(Oc3ccccc3)cc2)C1 (centres unmarked) [A262, 1-(3-(((6-amino-5-(4-phenoxyphenyl)pyrimidin-4-yl)amino)methyl)pyrrolidin-1-yl)prop-2-en-1-one]	< 1000	
		C=CC(=O)N[C@H]1CC[C@@H](Nc2ncnc(N)c2-c2ccc(Oc3ccccc3)cc2)CC1 [A266, N-((1s,4s)-4-((6-amino-5-(4-phenoxyphenyl)pyrimidin-4-yl)amino)cyclohexyl)acrylamide]	< 1000	
< 100		C=CC(=O)Nc1cccc(-c2cnc(N)nc2Oc2ccc(Oc3ccccc3)cc2)c1 [A306, N-(3-(2-amino-4-(4-phenoxyphenoxy)pyrimidin-5-yl)phenyl)acrylamide]	< 1000	
< 100		CC#CC(=O)N1CCC(CNc2ncnc(N)c2-c2ccc(Oc3ccccc3)cc2)CC1 [A336, 1-(4-(((6-amino-5-(4-phenoxyphenyl)pyrimidin-4-yl)amino)methyl)piperidin-1-yl)but-2-yn-1-one]	< 1000	
< 100		CC#CC(=O)N1CC[C@@H](Nc2ncnc(N)c2-c2ccc(Oc3ccccc3)cc2)C1 [A341, (R)-1-(3-((6-amino-5-(4-phenoxyphenyl)pyrimidin-4-yl)amino)pyrrolidin-1-yl)but-2-yn-1-one]	< 1000	

Compound	IC50 (full-length human BTK) [nM]	IC50 (BTK; [1]) [nM]	IC50 (PBMC) [nM]	IC50 (BTK) [nM]
C=CC(=O)N1C2CCC1CC(CNc1ncnc(N)c1-c1ccc(Oc3ccccc3)cc1)C2 (centres unmarked) [A48, 1-(3-(((6-amino-5-(4-phenoxyphenyl)pyrimidin-4-yl)amino)methyl)-8-azabicyclo[3.2.1]octan-8-yl)prop-2-en-1-one]	< 100			> 1000
